These results are taken from ChEMBL document CHEMBL5465560, “Selectivity Literature for EUbOPEN Chemogenomic Library” (2024).

The target in assay [1] is T1, Mitogen-activated protein kinase kinase kinase 19 (Homo sapiens) (UniProt Q56UN5).
T1 sequence (whole entry): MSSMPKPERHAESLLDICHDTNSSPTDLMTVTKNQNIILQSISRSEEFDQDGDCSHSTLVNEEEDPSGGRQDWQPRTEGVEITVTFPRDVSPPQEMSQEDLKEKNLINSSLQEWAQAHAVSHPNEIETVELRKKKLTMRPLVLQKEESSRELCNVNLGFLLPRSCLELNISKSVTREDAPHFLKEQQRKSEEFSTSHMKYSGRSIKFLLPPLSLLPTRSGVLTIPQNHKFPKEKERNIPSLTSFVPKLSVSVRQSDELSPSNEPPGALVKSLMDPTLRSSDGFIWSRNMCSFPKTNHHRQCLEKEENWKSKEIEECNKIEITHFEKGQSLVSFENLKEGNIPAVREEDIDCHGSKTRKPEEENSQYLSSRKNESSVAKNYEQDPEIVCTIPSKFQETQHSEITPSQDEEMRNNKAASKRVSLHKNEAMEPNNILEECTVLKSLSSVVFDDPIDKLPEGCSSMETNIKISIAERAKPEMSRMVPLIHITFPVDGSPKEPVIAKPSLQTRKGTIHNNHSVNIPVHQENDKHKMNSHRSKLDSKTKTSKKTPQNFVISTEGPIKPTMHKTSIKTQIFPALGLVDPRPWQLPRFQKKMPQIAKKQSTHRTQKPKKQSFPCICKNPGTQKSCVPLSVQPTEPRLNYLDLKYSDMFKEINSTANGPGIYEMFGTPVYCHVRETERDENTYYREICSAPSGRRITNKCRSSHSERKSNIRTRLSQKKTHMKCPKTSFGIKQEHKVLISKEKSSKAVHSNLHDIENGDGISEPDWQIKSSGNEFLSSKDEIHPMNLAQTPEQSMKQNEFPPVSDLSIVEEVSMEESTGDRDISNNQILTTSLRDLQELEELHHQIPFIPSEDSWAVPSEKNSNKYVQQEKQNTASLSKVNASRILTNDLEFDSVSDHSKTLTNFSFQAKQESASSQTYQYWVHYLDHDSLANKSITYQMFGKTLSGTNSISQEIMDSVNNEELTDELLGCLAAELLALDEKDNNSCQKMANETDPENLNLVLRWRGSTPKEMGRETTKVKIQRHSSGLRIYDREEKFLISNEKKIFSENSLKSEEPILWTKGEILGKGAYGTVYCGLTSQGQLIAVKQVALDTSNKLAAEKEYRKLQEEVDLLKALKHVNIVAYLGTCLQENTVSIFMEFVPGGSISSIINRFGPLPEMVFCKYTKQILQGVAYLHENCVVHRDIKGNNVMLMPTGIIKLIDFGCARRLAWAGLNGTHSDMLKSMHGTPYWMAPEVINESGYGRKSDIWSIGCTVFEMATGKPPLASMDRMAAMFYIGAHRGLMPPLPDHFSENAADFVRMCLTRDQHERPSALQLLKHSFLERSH
In words: Selectivity interaction (KinomeScan (DiscoverX)) EUB0001868a MAP3K19. Particulars: at 1 µM.

The target of assay [2] is Tyrosine-protein kinase Yes (Homo sapiens) (UniProt P07947). In words: Selectivity interaction (KinomeScan (DiscoverX)) EUB0000666a YES1. Particulars: at 10 µM.
Sequence of Tyrosine-protein kinase Yes (Homo sapiens) (P07947 2-543 limits assumed): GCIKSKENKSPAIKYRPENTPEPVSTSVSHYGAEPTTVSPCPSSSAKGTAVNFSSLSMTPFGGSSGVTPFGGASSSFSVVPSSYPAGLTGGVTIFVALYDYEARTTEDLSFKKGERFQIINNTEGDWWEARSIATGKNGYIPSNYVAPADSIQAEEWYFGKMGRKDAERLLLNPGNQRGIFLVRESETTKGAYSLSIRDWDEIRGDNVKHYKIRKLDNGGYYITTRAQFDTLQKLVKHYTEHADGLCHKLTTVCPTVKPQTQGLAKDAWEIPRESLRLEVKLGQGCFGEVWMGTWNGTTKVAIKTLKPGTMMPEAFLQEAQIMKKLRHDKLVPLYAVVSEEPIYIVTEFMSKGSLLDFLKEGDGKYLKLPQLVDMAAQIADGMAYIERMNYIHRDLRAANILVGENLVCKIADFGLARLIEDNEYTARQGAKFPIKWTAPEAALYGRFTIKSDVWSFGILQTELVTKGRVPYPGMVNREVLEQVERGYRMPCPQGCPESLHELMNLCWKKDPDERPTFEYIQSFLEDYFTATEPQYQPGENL
For assay [3], the target named is T2, Mitogen-activated protein kinase kinase kinase kinase 3 (Homo sapiens) (UniProt Q8IVH8).
T2 sequence (whole entry): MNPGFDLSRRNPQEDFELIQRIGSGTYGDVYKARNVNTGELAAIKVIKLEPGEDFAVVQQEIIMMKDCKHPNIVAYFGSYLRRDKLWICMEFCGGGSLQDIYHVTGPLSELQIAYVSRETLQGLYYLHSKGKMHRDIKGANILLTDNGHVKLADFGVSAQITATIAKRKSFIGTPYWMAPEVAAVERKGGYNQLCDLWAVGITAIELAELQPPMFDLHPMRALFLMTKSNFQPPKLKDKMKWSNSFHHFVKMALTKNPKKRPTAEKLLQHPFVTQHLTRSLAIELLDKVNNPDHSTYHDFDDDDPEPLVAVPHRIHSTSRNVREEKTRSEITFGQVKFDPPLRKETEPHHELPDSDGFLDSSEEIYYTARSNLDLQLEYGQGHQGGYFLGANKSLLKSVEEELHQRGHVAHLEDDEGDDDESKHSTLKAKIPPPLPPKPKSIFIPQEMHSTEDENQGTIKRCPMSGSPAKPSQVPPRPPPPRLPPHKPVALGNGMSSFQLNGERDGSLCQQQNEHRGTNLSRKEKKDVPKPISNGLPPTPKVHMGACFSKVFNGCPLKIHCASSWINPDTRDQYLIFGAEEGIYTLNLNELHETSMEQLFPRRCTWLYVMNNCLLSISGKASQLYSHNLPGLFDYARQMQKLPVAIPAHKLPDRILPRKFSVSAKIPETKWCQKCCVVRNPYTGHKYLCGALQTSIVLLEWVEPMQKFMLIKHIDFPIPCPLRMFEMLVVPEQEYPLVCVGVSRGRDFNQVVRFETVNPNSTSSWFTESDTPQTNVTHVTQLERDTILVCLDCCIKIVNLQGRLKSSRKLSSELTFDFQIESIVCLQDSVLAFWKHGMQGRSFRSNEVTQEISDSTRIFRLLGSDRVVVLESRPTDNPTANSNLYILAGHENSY
In words: Selectivity interaction (KinomeScan (DiscoverX)) EUB0000595a MAP4K3. Particulars: at 10 µM.

Assay [4] concerns the target Phosphatidylinositol 4-kinase beta (Homo sapiens, UniProt Q9UBF8). In words: Selectivity interaction (KinomeScan (DiscoverX)) EUB0000595a PI4KB. Particulars: at 10 µM.

SMILES strings stand for the structures.

Sequence of Phosphatidylinositol 4-kinase beta (Q9UBF8 2-816 limits assumed): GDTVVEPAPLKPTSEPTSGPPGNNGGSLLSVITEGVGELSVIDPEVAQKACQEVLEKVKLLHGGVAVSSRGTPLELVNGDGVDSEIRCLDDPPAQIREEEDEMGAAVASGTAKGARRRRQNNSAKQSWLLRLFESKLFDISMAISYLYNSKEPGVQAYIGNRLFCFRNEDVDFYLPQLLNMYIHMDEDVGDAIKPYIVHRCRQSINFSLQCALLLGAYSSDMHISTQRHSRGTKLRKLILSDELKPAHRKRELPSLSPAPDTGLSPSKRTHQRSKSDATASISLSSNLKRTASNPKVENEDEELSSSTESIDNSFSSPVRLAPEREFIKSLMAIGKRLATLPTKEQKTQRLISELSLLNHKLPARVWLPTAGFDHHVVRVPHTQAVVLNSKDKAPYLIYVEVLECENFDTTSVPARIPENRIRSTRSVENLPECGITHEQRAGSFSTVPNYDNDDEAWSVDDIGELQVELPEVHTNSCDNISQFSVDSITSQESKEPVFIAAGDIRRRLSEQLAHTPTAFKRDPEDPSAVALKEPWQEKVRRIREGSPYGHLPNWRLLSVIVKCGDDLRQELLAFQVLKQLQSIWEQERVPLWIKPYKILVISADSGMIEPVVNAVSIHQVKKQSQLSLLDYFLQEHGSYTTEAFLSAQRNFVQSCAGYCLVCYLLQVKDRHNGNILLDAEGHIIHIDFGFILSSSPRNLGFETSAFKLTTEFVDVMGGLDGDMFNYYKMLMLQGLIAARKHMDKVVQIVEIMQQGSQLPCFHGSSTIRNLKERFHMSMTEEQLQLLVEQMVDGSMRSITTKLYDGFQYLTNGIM

In turn, `Cc1cc(-c2ccnc(Nc3cnn(C)c3)n2)ccc1CNC(=O)N1CC(OC(C)C)C1` came in with a % of control in assay [1] of 9%.

`O=C(NOC[C@H](O)CO)c1ccc(F)c(F)c1Nc1ccc(I)cc1F` had a % of control in assay [2] of 73%.

As for `COCC(=O)NC/C=C/c1ccc2ncnc(Nc3ccc(Oc4ccc(C)nc4)c(C)c3)c2c1` [CP-724714], the values for the % of control in assay [3] and in assay [4] were 80% and 100%, respectively.
